Test results from ChEMBL document CHEMBL1201862, “PubChem BioAssay data set” (2004).
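These data come from cells grown in 96-well plates and exposed to compound for 48 hours at five concentrations. GI50: concentration for 50% inhibition of growth.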 The source made the active and inactive calls. Cut-off read from the data, not from the text of the source: active = GI50 up to about 1.1 µM and inactive = higher.

Experiments:
Experiment in all cases: NCI anticancer screen, dose series, 48 h
DLD-1 = tested on: DLD-1
PC-3 = tested on: PC-3
DMS-114 = tested on: DMS-114
MDA-N = tested on: MDA-N
Hs-578T = tested on: Hs-578T
BT-549 = tested on: BT-549
T47D = tested on: T47D
SNB-75 = tested on: SNB-75
SK-OV-3 = tested on: SK-OV-3
NCI-H460 = tested on: NCI-H460
CCRF-CEM = tested on: CCRF-CEM
MDA-MB-231 = tested on: MDA-MB-231
HOP-18 = tested on: HOP-18
TK-10 = tested on: TK-10
HL-60 = tested on: HL-60
A549 = tested on: A549
XF498 = tested on: XF498
NCI-H226 = tested on: NCI-H226
786-0 = tested on: 786-0
ACHN = tested on: ACHN
OVCAR-5 = tested on: OVCAR-5
KM12 = tested on: KM12
HCC 2998 = tested on: HCC 2998
SF-268 = tested on: SF-268
HT-29 = tested on: HT-29
M14 = tested on: M14
DMS-273 = tested on: DMS-273
DU-145 = tested on: DU-145
K562 = tested on: K562
OVCAR-4 = tested on: OVCAR-4
COLO 205 = tested on: COLO 205
MDA-MB-435 = tested on: MDA-MB-435
KM-20L2 = tested on: KM-20L2
SW-620 = tested on: SW-620
NCI-H522 = tested on: NCI-H522
MCF7 = tested on: MCF7
HOP-92 = tested on: HOP-92
UACC-62 = tested on: UACC-62
A498 = tested on: A498
CAKI-1 = tested on: CAKI-1
HOP-62 = tested on: HOP-62
RXF 393 = tested on: RXF 393
Malme-3M = tested on: Malme-3M
MOLT-4 = tested on: MOLT-4
UO-31 = tested on: UO-31
SNB-19 = tested on: SNB-19
SK-MEL-2 = tested on: SK-MEL-2
RXF 631 = tested on: RXF 631
LOX IMVI = tested on: LOX IMVI
U-251 = tested on: U-251
SF-295 = tested on: SF-295
IGROV-1 = tested on: IGROV-1
EKVX = tested on: EKVX
HCT-116 = tested on: HCT-116
SK-MEL-5 = tested on: SK-MEL-5
SN12C = tested on: SN12C
LXFL 529 = tested on: LXFL 529
OVCAR-8 = tested on: OVCAR-8
OVCAR-3 = tested on: OVCAR-3
UACC-257 = tested on: UACC-257
SK-MEL-28 = tested on: SK-MEL-28
SR = tested on: SR
HCT-15 = tested on: HCT-15
M19-MEL = tested on: M19-MEL
RPMI-8226 = tested on: RPMI-8226
NCI-H23 = tested on: NCI-H23
SNB-78 = tested on: SNB-78
SF-539 = tested on: SF-539

Structure (SMILES): O=C1C=CC(=O)c2c1ccc1c3ccccc3n(-c3ccccc3)c21
- GI50 (DLD-1): 2.26 µM (inactive)
- GI50 (PC-3): 13.6 µM (inactive)
- GI50 (DMS-114): 16.9 µM (inactive)
- GI50 (MDA-N): 5.64 µM (inactive)
- GI50 (Hs-578T): 17.7 µM (inactive)
- GI50 (BT-549): 13.5 µM (inactive)
- GI50 (T47D): 2.05 µM (inactive)
- GI50 (SNB-75): 18.9 µM (inactive)
- GI50 (SK-OV-3): 16.8 µM (inactive)
- GI50 (NCI-H460): 17.9 µM (inactive)
- GI50 (CCRF-CEM): 0.304 µM (active)
- GI50 (MDA-MB-231): 4.45 µM (inactive)
- GI50 (HOP-18): 7.82 µM (inactive)
- GI50 (TK-10): 7.66 µM (inactive)
- GI50 (HL-60): 0.501 µM (active)
- GI50 (A549): 20.5 µM (inactive)
- GI50 (XF498): 0.535 µM (active)
- GI50 (NCI-H226): 18.3 µM (inactive)
- GI50 (786-0): 4.86 µM (inactive)
- GI50 (ACHN): 3.26 µM (inactive)
- GI50 (OVCAR-5): 17.1 µM (inactive)
- GI50 (KM12): 17.9 µM (inactive)
- GI50 (HCC 2998): 24.9 µM (inactive)
- GI50 (SF-268): 17.4 µM (inactive)
- GI50 (HT-29): 15.8 µM (inactive)
- GI50 (M14): 7.78 µM (inactive)
- GI50 (DMS-273): 15.2 µM (inactive)
- GI50 (DU-145): 19.8 µM (inactive)
- GI50 (K562): 0.986 µM (active)
- GI50 (OVCAR-4): 13.9 µM (inactive)
- GI50 (COLO 205): 4.56 µM (inactive)
- GI50 (MDA-MB-435): 14.1 µM (inactive)
- GI50 (KM-20L2): 17 µM (inactive)
- GI50 (SW-620): 2.29 µM (inactive)
- GI50 (NCI-H522): 1.64 µM (inactive)
- GI50 (MCF7): 2.11 µM (inactive)
- GI50 (HOP-92): 2.61 µM (inactive)
- GI50 (UACC-62): 13 µM (inactive)
- GI50 (A498): 17.9 µM (inactive)
- GI50 (CAKI-1): 7.18 µM (inactive)
- GI50 (HOP-62): 11 µM (inactive)
- GI50 (RXF 393): 1.71 µM (inactive)
- GI50 (Malme-3M): 4.47 µM (inactive)
- GI50 (MOLT-4): 0.561 µM (active)
- GI50 (UO-31): 11.9 µM (inactive)
- GI50 (SNB-19): 19.5 µM (inactive)
- GI50 (SK-MEL-2): 13.1 µM (inactive)
- GI50 (RXF 631): 25.4 µM (inactive)
- GI50 (LOX IMVI): 7.1 µM (inactive)
- GI50 (U-251): 15.2 µM (inactive)
- GI50 (SF-295): 14.6 µM (inactive)
- GI50 (IGROV-1): 18.3 µM (inactive)
- GI50 (EKVX): 8.77 µM (inactive)
- GI50 (HCT-116): 2.37 µM (inactive)
- GI50 (SK-MEL-5): 16.7 µM (inactive)
- GI50 (SN12C): 11.5 µM (inactive)
- GI50 (LXFL 529): 3.53 µM (inactive)
- GI50 (OVCAR-8): 4.56 µM (inactive)
- GI50 (OVCAR-3): 8.83 µM (inactive)
- GI50 (UACC-257): 5.65 µM (inactive)
- GI50 (SK-MEL-28): 3.34 µM (inactive)
- GI50 (SR): 0.271 µM (active)
- GI50 (HCT-15): 3.48 µM
- GI50 (M19-MEL): 16.5 µM (inactive)
- GI50 (RPMI-8226): 1.26 µM (inactive)
- GI50 (NCI-H23): 15.4 µM (inactive)
- GI50 (SNB-78): 20.3 µM (inactive)
- GI50 (SF-539): 15.7 µM (inactive)
